Test results taken from article PMC7380940, “Alterations in the intrinsic properties of striatal cholinergic interneurons after dopamine lesion and chronic L-DOPA” (eLife, 2020).

System: T1, Hyperpolarization-activated cyclic nucleotide-gated (HCN) channels (native, isoform not resolved)
T1 construct: native HCN current (Ih) in striatal cholinergic interneurons, acute slices
Experiment: whole-cell voltage-clamp of Ih in striatal slices, concentration-response
Format: cell-based, Mus musculus
Source text: whole-cell voltage-clamp of Ih in striatal slices, concentration-response on Hyperpolarization-activated cyclic nucleotide-gated (HCN) channels (native, isoform not resolved) | Dependence of Ih density (as measured on Figure 3E) on ZD7288 concentration.

Work on `CC/[N+](c1ccccc1)=c1\cc(NC)n(C)c(C)n1` [ZD7288] yielded an IC50 of 1.4 µM.
